The source of these data is PMC6337512 (Molecules, 2018).

The conditions of series [1]: solutions in culture media RPMI.
A short description of series [2]: Solubility of APIs and THEDES in PBS, excess added, 24 h stirring, UV spectroscopy. Type of series: physicochemical. Conditions: aqueous buffer, thermodynamic from solid; PBS (pH 7.4), 37 °C.
Procedure: The solubility studies were made with the pure APIs and THEDES. For performing these assays were used a PBS solution, and was added an excess of API and THEDES to this solution, place at 37 °C, under stirring for 24 h, for simulate physiological conditions. The determination of the API solubility was made by UV spectroscopy in 1 mL quartz cuvettes, using a Lambda 35 UV/VIS spectrometer (PerkinElmer, Villepinte, France) and the PerkinElmer UV WinLab software (PerkinElmer, Villepinte, France). […] The calibration curve was made using the respective APIs as standard for quantification.
Series [3] can be described thus: Permeability and diffusion in Franz diffusion cells through PES-U membrane.

Molecules are shown by their SMILES. ≈ marks a conversion by molar mass, not a printed value.

One may read the solubility as the concentration that dissolves in the medium under given conditions. A low value points to little dissolved substance. The term Papp denotes a coefficient for how fast a substance crosses the barrier. A high value points to ready permeation.

Consider `N=C(N)NCCC[C@H](N)C(=O)O` [L-Arginine, L-arginine], for which the pH in series [1] was 10.43.

As for `CC[C@@H](CO)NCCN[C@@H](CC)CO` [Ethambutol, ethambutol], the concentration in solution in series [2] (solubility at 24 h) was 4640 ± 70 µg/mL (≈ 22.7 mM). The pH in series [1] came to 6.21. The compound further gave a Papp at 180 min in series [3] of 819 ± 30.6 ×10⁻⁶ cm/s.
